Patent publication US6242440A, “Synergistic compositions comprising an oxathiazine and a benzothiophene-2-carboxamide-S,S-dioxide” (Janssen Pharmaceutica N.V., priority 1997, dated 2001)

How the values were obtained:
[1] = tested on: Aureobasidium; test: wood stick test (Scots Pine); type: cell-based, Aureobasidium pullulans; settings: read-out: measured (relative) activity %
Protocol: (§1) Oven-dried wood sticks (50×12×2 mm) of Scots Pine (Pinus sylvestris) were dipped during 3 hours in a methanol solution comprising a compound of formula (I), a compound of formula (II), or a combination of a compound of formula (I) and a compound of formula (II), and allowed to dry overnight in a sterile laminar air flow. In each Petri dish one stick was placed on culture medium, PDA PS (Potato Dextrose Agar containing 60 mg penicillin and 200 mg streptomycin), previously seeded with inoculum. Two drops of fungal or spore suspension were pipetted on the upper surface of the stick The Petri dishes were incubated at 22° C. and 70% relative humidity. The test was evaluated after sufficient growth of the fungus on the control sticks. The following score system was used:
(§2) 0: sticks free of fungal growth
(§3) 1: traces of growth on the stick
(§4) 2: slight growth (5 to 25% of the surface covered)
(§5) 3 : moderate growth (25 to 50% of the surface covered)
(§6) 4: vigorous to maximum growth (more tha 50% covered)
(§7) To calculate synergism results were converted to the next artificial activities:
(§8) Yhe expected activities E were calculated by using the so-called formula of Colby: (Colby, S. R. Weeds 1967, 15: 20-22), [formula]
(§9) wherein X and Y express the relative activities obtained for each of the active ingredients. A synergistic effect can be acknowledged if the found activity exceeds calculated activity.
(§10) The compound of formula (I) used in the experiment was 3-benzo[b]-thien-2-yl)-5,6-dihydro-1,4,2-oxathiazine 4-oxide, i.e. compound (1). The compound of formula (II) used in the experiment was N-cyclohexyl-benzothiophene-2-carboxamide-S,S-dioxide, i.e. compound (2).

[2] = tested on: Sclerophoma entoxylina; test: poison plate assay, mycelial growth and sporulation; type: cell-based
Protocol: (§11) The efficacy of the active ingredients against mycelial growth and sporulation of Aureobasidium pullulans, Aspergillus niger, Scierophoma entoxylina, Trichodenna viride, was determined in the poison plate assay. The required concentrations of the fungicide(s) were obtained by diluting the active ingredients (I), (II) or the combination of (I) and (II) in dimethyl sulfoxide (DMSO) at 800 times the final test concentration. The stock solutions in DMSO were pipetted into Petri-dishes. Malt extract agar (3%) was added aseptically and uniform distribution was obtained by shaking. Each plate was spot inoculated with a spore or mycelial suspension. After incubation at 22° C. and 70% relative humidity for a period long enough to allow complete growth of controls, diameters of colonies were measured. Relative activities were calculated by taking the absence of fungal growth (diameter 0 mm) as 100%. From the activity of the active ingredients alone, the expected activities E were calculated by using the so-called formula of Colby: (Colby, S. R. Weeds 1967, 15: 20-22), [formula]
as §9
(§12) Equal efficacy was observed whenever complete inhibition of fungal growth occurred by one of the active ingredients (I) or (II) alone. The compound of formula (I) used in the experiment was 3-benzo[b]-thien-2-yl)-5,6-dihydro-1,4,2-oxathiazine 4-oxide, i.e. compound (1). The compound of formula (II) used in the experiment was N-cyclohexyl-benzothiophene-2-carboxamide-S,S-dioxide, i.e. compound (2).

[3] = tested on: Aspergillus niger; test: as above; type: cell-based
Protocol: as §11, §9, §12

[4] = tested on: Aureobasidium pullulans; test: as above; type: cell-based
Protocol: as §11, §9, §12

[5] = tested on: Trichoderma viride; test: as above; type: cell-based
Protocol: as §11, §9, §12

[6] = tested on: Sclerophoma; test: wood stick test (Scots Pine); type: cell-based, Sclerophoma entoxylina
Protocol: as §1, §2, §3, §4, §5, §6, §7, §8, §9, §10

[7] = tested on: Aspergillus; test: wood stick test (Scots Pine); type: cell-based, Aspergillus niger
Protocol: as §1, §2, §3, §4, §5, §6, §7, §8, §9, §10

SMILES: [O-][S+]1CCON=C1c1cc2ccccc2s1 (stereo not shown) [compound (1), 3-(benzo[b]thien-2-yl)-5,6-dihydro-1,4,2-oxathiazine, 4-oxide]
- activity at 200 ppm ([1]; (1) 200 ppm): 0%
- activity at 400 ppm ([1]; (1) 400 ppm): 50%
- activity measured ([2]; Exp 1, 5 days, (1) 0.62 mg/l): 2%
- growth ([2]; Exp 1, 5 days, (1) 0.62 mg/l): 42 mm
- activity measured ([2]; Exp 1, 5 days, (1) 1.25 mg/l): 14%
- growth ([2]; Exp 1, 5 days, (1) 1.25 mg/l): 37 mm
- activity measured ([2]; Exp 1, 5 days, (1) 2.50 mg/l): 37%
- growth ([2]; Exp 1, 5 days, (1) 2.50 mg/l): 27 mm
- activity measured ([2]; Exp 1, 5 days, (1) 5.00 mg/l): 84%
- growth ([2]; Exp 1, 5 days, (1) 5.00 mg/l): 7 mm
- activity measured ([2]; Exp 2, 7 days, (1) 1.25 mg/l): 4%
- growth ([2]; Exp 2, 7 days, (1) 1.25 mg/l): 47 mm
- activity measured ([2]; Exp 2, 7 days, (1) 2.50 mg/l): 18%
- growth ([2]; Exp 2, 7 days, (1) 2.50 mg/l): 40 mm
- activity measured ([3]; Exp 1, 5 days, (1) 0.62 mg/l): 5%
- growth ([3]; Exp 1, 5 days, (1) 0.62 mg/l): 42 mm
- activity measured ([3]; Exp 1, 5 days, (1) 1.25 mg/l): 14%
- growth ([3]; Exp 1, 5 days, (1) 1.25 mg/l): 38 mm
- activity measured ([3]; Exp 1, 5 days, (1) 2.50 mg/l): 39%
- growth ([3]; Exp 1, 5 days, (1) 2.50 mg/l): 27 mm
- activity measured ([3]; Exp 1, 5 days, (1) 5.00 mg/l): 100%
- growth ([3]; Exp 1, 5 days, (1) 5.00 mg/l): 0 mm
- activity measured ([3]; Exp 2, 7 days, (1) 1.25 mg/l): 16%
- growth ([3]; Exp 2, 7 days, (1) 1.25 mg/l): 38 mm
- activity measured ([3]; Exp 2, 7 days, (1) 2.50 mg/l): 44%
- growth ([3]; Exp 2, 7 days, (1) 2.50 mg/l): 25 mm
- activity measured ([4]; Exp 1, 5 days, (1) 0.62 mg/l): 13%
- growth ([4]; Exp 1, 5 days, (1) 0.62 mg/l): 33 mm
- activity measured ([4]; Exp 1, 5 days, (1) 1.25 mg/l): 32%
- growth ([4]; Exp 1, 5 days, (1) 1.25 mg/l): 26 mm
- activity measured ([4]; Exp 1, 5 days, (1) 2.50 mg/l): 61%
- growth ([4]; Exp 1, 5 days, (1) 2.50 mg/l): 15 mm
- activity measured ([4]; Exp 1, 5 days, (1) 5.00 mg/l): 87%
- growth ([4]; Exp 1, 5 days, (1) 5.00 mg/l): 5 mm
- activity measured ([4]; Exp 2, 7 days, (1) 1.25 mg/l): 8%
- growth ([4]; Exp 2, 7 days, (1) 1.25 mg/l): 44 mm
- activity measured ([4]; Exp 2, 7 days, (1) 2.50 mg/l): 21%
- growth ([4]; Exp 2, 7 days, (1) 2.50 mg/l): 38 mm
- activity measured ([5]; Exp 1, 5 days, (1) 0.62 mg/l): 0%
- growth ([5]; Exp 1, 5 days, (1) 0.62 mg/l): 49 mm
- activity measured ([5]; Exp 1, 5 days, (1) 1.25 mg/l): 0%
- growth ([5]; Exp 1, 5 days, (1) 1.25 mg/l): 49 mm
- activity measured ([5]; Exp 1, 5 days, (1) 2.50 mg/l): 2%
- growth ([5]; Exp 1, 5 days, (1) 2.50 mg/l): 48 mm
- activity measured ([5]; Exp 1, 5 days, (1) 5.00 mg/l): 29%
- growth ([5]; Exp 1, 5 days, (1) 5.00 mg/l): 35 mm
- activity measured ([5]; Exp 2, 7 days, (1) 1.25 mg/l): 12%
- growth ([5]; Exp 2, 7 days, (1) 1.25 mg/l): 43 mm
- activity measured ([5]; Exp 2, 7 days, (1) 2.50 mg/l): 29%
- growth ([5]; Exp 2, 7 days, (1) 2.50 mg/l): 35 mm
- % overgrown of the sticks ([6]; (1) 200 ppm): 100%
- stick test scores ([6]; (1) 200 ppm): 4 (vigorous to maximum growth (more tha 50% covered))
- % overgrown of the sticks ([6]; (1) 400 ppm): 50%
- stick test scores ([6]; (1) 400 ppm): 3 (moderate growth (25 to 50% of the surface covered))
- activity at 200 ppm ([6]; Sclerophoma entoxylina, (1) 200 ppm, read-out: measured (relative) activity %): 0%
- activity at 400 ppm ([6]; Sclerophoma entoxylina, (1) 400 ppm, read-out: measured (relative) activity %): 50%
- % overgrown of the sticks ([7]; (1) 200 ppm): 100%
- stick test scores ([7]; (1) 200 ppm): 4 (vigorous to maximum growth (more tha 50% covered))
- % overgrown of the sticks ([7]; (1) 400 ppm): 50%
- stick test scores ([7]; (1) 400 ppm): 3 (moderate growth (25 to 50% of the surface covered))
- activity at 400 ppm ([7]; Aspergillus, (1) 400 ppm, read-out: measured (relative) activity %): 50%
